According to US20100261682A1, “Method and Means for the Treatment of Cachexia” (Bioneris AB, priority 2007, published 2010):

Legend:
Type in all cases: in vivo, NMRI mice
[1] = system: mice bearing the MAC16 tumour; assay: Body weight change in cachectic mice bearing the MAC16 tumour treated with alpha-trinositol (Example 1)
Protocol: Materials. Alpha-trinositol (1-D-Myo-inositol 1,2,6-triphosphate) was prepared according to U.S. Pat. No. 4,777,134. In a glass ampoule a stock solution was prepared by dissolving 1 g of alpha-trinositol in saline to a total volume of 10 ml. The stock solution was stored in a refrigerator for use within 24 hrs.
Animals. Pure strain male NMRI mice (average body weight 25 g) were transplanted with fragments of the MAC16 tumour subcutaneously into the flank by means of a trochar, selected from donor animals with established weight loss (Bibby M C et al., Characterization of transplantable adenocarcinoma in the mouse colon producing cachexia in the recipient animals. J Natl Cancer Inst 78 (1987) 539-546). Transplanted animals were given a rat and mouse breeding diet (Special Diet Services, Witham, UK) and water at lib. Weight loss was evident 10 to 12 days after tumour implantation. Just prior to the development of weight loss 24 animals were randomized into four groups (I-IV) of six animals each.
Administration of alpha-trinositol. A first experiment was started when the animals had lost about 5% of body weight. Aliquots (2.5 μl, Group I; 5 μl, Group II; 10 μl, Group III) of alpha-trinositol stock solution corresponding to doses of 10 mg/kg, 20 mg/kg, and 40 mg/kg for a 25 g animal were administered subcutaneously three times per day at 8.00, 12.00 and 16.00 hrs. The fourth group (Group IV; control) was given an intravenous injection of 10 μl of water. Body weight (FIG. 1), tumour volume (FIG. 2), and water and food intake were determined daily after the last injection.

[2] = system: 20S proteasome α-subunits; assay: Western blot of gastrocnemius muscle: 20S proteasome α-subunits; settings: 40 mg/kg s.c., 3 times per day
Protocol: (§1) Administration of alpha-trinositol. Mice (n=6) bearing the MAC16 tumour were treated with AT (40 mg/kg) s.c., 3 times per day, for 5 days, while a control group received PBS. Protein synthesis and degradation were determined by the incorporation and release of L-[2,6-^3H]phenylalanine, as described in Smith et al., Cancer Res., 2005; 65:277-83. On the fourth day of treatment half of the group administered 0.4 mmol/L L-[2,6-^3H]phenylalanine in PBS (100 μl) by i.p. administration.
(§2) Western blot analysis Gastrocnemius muscle (10 mg) was homogenised in Phosphosafe™ Extraction Reagent (500 μl) and centrifuged at 15000 g for 15 min. Samples of the cytosolic proteins (5 μg) were loaded on either a 10% (mTOR, myosin, eIF4E and eIF4G) 12% (PKR, eIF2α and actin) or 15% (4E-BP1) sodium dodecylsulphate-polyacrylamide gel (SDS-PAGE) and electrophoresed at 180 V for approximately 1 h. The extent of phosphorylation of 4E-BP1, and the association of 4E-BP1 and eIF4G with eIF4E was determined by Western blotting when eIF4E was extracted from the muscle samples by m^7GTP-Sepharose 4B-affinity binding, as previously described Eley ey al., Biochem J., 2007; 407:113-20, by loading 20 μg of protein. […] Blots were scanned by a densitometer to quantify differences.

4E-BP1 = assay: Western blot of gastrocnemius muscle: phosphorylation of 4E-BP1; settings: 40 mg/kg; 60% reduction in untreated tumour-bearing animals
Protocol: as §1, §2

eIF4G.eIF4E complex = assay: Western blot after m7GTP-Sepharose extraction: active eIF4G.eIF4E complex; settings: 40 mg/kg
Protocol: as §1, §2

Q: What does the source list for `O=P(O)(O)O[C@@H]1[C@H](OP(=O)(O)O)[C@H](O)[C@@H](O)[C@H](O)[C@H]1OP(=O)(O)O` [alpha-trinositol, 1-D-Myo-inositol 1,2,6-triphosphate]?
A: anti-cachexia effect (body weight) ([1]; 10 mg/kg s.c. three times per day): clear anti-cachexia effect; relative weight loss versus control group ([1]; day 0 to day 5, AT group): half of the control group; body weight lost ([1]; day 0 to day 5, AT group, s.c. three times per day (FIG. 3: 3×40 mg/kg), control lost ~4.7 g): ~2.3 g; body weight lost ([1]; day 1 (first day of treatment) to day 5, AT group, control lost 3.3 g): 1.15 g; weight loss as fraction of the control group ([1]; day 1 to day 5, AT group): ⅓; expression of the 20S proteasome α-subunits in gastrocnemius muscle [2]: down-regulates; tumour-induced reduction in phosphorylation of 4E-BP1 (Thr37/46) (4E-BP1): completely attenuated; tumour-induced decrease in formation of the active eIF4G.eIF4E complex (eIF4G.eIF4E complex): completely attenuated
